# Values joined by “and” are separate entries in the source; they are usually repeats but may differ in a detail not shown here. Identical values can stand only once.
# Legend:
# [1] = Trypanosoma cruzi proteasome luciferase counter-screen; type: functional, N/A
# Proteasome subunit beta = biological target: T1, Proteasome subunit beta (Trypanosoma cruzi, UniProt O96673); experiment: Trypanosoma cruzi proteasome chymotrypsin-like activity (TcProtChymo) assay.; type: functional
# T1 sequence (O96673 whole entry): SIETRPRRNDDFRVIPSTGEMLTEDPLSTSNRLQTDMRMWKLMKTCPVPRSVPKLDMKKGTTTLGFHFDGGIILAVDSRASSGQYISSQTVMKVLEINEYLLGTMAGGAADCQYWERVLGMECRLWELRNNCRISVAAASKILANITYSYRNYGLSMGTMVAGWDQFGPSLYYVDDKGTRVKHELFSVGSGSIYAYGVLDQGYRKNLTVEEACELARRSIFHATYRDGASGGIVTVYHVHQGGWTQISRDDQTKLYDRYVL
# [2] = biological target: Chromo domain-containing protein 1 (Saccharomyces cerevisiae (strain ATCC 204508 / S288c) (Baker's yeast), UniProt P32657); experiment: ScCHD-1 Enzyme Inhibition Assay; type: functional
# Sequence of Chromo domain-containing protein 1 (P32657 whole entry, the tested form may be a part): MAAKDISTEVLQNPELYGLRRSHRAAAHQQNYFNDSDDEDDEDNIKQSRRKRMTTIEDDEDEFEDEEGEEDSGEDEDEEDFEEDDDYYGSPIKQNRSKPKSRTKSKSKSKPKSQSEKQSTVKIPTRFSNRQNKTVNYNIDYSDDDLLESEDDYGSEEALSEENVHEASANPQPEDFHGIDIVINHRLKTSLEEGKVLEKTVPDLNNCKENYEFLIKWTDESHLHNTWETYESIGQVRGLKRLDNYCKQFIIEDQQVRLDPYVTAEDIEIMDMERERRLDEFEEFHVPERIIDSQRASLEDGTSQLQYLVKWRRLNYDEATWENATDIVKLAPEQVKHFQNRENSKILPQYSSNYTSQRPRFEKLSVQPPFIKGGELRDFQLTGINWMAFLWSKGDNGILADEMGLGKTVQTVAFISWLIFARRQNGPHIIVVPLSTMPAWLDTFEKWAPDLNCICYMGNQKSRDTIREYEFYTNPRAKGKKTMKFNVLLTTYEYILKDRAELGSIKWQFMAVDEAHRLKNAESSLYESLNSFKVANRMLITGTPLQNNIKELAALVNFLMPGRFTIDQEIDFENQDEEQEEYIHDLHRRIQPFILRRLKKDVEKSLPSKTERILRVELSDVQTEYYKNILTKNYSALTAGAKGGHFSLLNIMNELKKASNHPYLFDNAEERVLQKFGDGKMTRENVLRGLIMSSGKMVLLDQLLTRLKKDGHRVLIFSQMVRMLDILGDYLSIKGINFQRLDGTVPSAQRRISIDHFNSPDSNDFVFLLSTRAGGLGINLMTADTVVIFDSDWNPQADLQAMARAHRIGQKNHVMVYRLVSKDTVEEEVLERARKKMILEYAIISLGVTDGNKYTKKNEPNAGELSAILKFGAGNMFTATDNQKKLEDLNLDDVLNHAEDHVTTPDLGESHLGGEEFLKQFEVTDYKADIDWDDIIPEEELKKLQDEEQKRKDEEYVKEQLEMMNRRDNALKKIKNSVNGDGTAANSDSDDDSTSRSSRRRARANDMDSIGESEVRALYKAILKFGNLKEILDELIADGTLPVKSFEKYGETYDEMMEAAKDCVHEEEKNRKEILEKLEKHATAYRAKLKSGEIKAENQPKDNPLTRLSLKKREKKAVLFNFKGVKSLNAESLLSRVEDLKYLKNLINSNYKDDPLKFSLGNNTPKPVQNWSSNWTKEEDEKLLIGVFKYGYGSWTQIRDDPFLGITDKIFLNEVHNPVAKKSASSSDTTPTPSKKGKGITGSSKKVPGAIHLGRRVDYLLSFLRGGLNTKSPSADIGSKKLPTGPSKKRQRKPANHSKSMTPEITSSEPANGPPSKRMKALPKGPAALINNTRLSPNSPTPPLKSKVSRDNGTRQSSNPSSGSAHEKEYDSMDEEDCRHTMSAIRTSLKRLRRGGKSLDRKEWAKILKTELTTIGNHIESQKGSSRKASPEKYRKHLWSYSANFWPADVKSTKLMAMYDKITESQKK
# Schistosoma mansoni = experiment: High throughput screening of compounds against Schistosoma mansoni motility; type: functional; set-up: dose or concentration left out as unconfirmed
# [3] = To identify inhibition of the IFN signalling (Jak-Stat) pathway via expression of an eGFP reporter gene under the control of an IFN-stimulated response element (ISRE) containing MxA promoter.; type: functional, Homo sapiens
# Wolbachia pipientis = experiment: Anti-Wolbachia Cell-Based Screen; type: functional; conditions: Wolbachia pipientis
# Leishmania donovani = experiment: Leishmania intramacrophage assay; type: functional, organism-based; conditions: Leishmania donovani
# Lysine--tRNA ligase = Lysine--tRNA ligase (Plasmodium falciparum (isolate 3D7), UniProt Q8IDJ8); experiment: Pf-KRS-1 (Lysyl-RNA Synthetase-1, KRS-1, cytosolic KRS) from Plasmodium falciparum. Inhibitor assay, 384 well plate, luminescence read.; type: functional
# Sequence of Lysine--tRNA ligase (Q8IDJ8 whole entry): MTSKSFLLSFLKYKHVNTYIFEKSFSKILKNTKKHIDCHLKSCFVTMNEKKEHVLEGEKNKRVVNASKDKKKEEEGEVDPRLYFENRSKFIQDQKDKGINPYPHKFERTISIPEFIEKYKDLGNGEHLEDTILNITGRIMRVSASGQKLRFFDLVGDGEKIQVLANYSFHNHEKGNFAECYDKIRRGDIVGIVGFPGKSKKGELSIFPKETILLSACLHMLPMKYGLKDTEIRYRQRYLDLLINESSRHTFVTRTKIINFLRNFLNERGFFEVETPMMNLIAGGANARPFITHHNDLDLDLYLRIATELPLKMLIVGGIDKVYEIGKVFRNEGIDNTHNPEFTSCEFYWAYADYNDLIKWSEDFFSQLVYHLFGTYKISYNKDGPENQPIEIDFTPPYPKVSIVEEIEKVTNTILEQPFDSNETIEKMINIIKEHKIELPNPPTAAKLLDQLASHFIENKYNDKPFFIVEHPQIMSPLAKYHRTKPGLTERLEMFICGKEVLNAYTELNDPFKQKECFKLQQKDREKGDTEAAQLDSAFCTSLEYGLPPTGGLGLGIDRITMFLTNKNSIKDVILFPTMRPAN
# ClpP1P2 = ClpP1P2 (Mycobacterium tuberculosis (strain ATCC 25618 / H37Rv), UniProt P9WPC3+P9WPC5); experiment: in vitro assay to detect presence of AMC directly proportional to the activity of ClpP1P2. GHDDI collaboration.; type: functional
# Sequence of ClpP1P2 (P9WPC5 whole entry): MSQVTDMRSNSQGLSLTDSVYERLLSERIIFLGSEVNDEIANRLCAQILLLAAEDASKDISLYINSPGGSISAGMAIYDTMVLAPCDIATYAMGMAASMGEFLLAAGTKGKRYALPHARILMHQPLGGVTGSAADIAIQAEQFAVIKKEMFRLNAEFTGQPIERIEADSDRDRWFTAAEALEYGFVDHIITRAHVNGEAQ
# Sequence of ClpP1P2 (P9WPC3 whole entry): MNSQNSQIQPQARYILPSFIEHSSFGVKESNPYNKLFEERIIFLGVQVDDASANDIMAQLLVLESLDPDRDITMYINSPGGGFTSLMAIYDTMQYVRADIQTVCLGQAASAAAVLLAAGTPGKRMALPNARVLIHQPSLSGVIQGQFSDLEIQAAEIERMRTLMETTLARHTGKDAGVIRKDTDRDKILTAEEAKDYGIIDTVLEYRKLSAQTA
# [4] = microbe, parasite or virus in culture; conditions: Mycobacterium tuberculosis, 72 h, read-out: pIC50 (converted)
# [5] = microbe, parasite or virus in culture; conditions: Mycobacterium tuberculosis, 96 h, read-out: pIC50 (converted)
# [6] = biological target: Polyketide synthase Pks13 (Mycobacterium tuberculosis (strain ATCC 25618 / H37Rv), UniProt I6X8D2); experiment: Mycobacterium tuberculosis Polyketide synthase 13 Thioesterase (PKS13); type: functional
# Sequence of Polyketide synthase Pks13 (I6X8D2 whole entry): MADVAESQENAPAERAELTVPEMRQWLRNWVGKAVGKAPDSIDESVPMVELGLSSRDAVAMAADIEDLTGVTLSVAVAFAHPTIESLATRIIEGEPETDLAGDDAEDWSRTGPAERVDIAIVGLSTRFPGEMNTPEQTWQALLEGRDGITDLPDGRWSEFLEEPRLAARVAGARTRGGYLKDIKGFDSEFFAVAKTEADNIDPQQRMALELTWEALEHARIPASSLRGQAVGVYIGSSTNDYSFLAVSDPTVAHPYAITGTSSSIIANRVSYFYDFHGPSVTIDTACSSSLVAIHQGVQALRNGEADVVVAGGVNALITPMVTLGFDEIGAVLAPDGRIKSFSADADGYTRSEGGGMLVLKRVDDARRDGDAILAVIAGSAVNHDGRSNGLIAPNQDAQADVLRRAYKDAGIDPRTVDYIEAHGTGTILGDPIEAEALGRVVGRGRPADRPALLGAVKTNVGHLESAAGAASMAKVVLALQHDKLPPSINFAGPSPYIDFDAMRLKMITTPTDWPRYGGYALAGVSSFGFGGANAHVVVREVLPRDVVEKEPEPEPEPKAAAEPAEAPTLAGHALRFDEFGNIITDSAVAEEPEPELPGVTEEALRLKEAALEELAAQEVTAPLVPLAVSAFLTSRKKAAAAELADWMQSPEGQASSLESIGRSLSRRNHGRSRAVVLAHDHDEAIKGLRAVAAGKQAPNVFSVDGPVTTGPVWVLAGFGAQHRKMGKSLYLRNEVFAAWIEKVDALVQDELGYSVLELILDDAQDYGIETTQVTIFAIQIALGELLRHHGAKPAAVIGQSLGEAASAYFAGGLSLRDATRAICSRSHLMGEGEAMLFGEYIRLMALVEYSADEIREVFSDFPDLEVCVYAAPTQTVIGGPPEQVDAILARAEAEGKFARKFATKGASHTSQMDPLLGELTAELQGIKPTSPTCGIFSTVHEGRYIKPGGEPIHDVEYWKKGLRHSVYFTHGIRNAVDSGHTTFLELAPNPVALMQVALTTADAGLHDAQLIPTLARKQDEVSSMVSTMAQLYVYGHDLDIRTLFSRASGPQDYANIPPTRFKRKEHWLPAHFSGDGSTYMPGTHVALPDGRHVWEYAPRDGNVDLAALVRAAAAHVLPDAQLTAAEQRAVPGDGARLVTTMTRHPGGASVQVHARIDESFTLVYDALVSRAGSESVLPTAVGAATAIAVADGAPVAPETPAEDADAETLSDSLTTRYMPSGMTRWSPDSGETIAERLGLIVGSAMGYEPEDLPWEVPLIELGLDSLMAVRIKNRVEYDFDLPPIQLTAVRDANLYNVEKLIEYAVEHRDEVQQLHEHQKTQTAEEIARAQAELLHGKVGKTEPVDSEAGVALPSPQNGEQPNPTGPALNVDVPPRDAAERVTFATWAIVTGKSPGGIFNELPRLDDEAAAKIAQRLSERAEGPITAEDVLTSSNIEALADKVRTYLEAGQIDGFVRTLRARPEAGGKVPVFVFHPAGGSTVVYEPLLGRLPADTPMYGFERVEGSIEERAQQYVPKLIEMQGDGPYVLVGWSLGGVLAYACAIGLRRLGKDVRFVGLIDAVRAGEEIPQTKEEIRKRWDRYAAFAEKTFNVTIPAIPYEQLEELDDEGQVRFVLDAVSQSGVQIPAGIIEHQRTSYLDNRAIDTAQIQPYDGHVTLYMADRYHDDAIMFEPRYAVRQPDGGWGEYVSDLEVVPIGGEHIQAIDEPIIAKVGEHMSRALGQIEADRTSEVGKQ
SMILES,pIC50 [1],IC50 (Proteasome subunit beta),further results
O=C(NCCCN1CCOCC1)c1ccn(-c2ccc3ccccn23)n1.O=C(O)C(F)(F)F,< 4,> 100 µM,
O=C(c1ccc(C2CCCO2)s1)N1Cc2ccccc2C1 (stereo not given),4.241 and < 4,16.1 µM and 11.4 µM,
N#Cc1c(F)cccc1N1CCN(S(=O)(=O)c2cccs2)CC1,,,IC50 [2]: > 29.5 µM; Percent Effect (Schistosoma mansoni): 35.72%; pIC50 [3]: 4.537 and 4.564
Cc1cc(C(C)C(=O)N2CCCN(Cc3cscn3)CC2)c(C)o1 (stereo not given),< 4,> 100 µM,
O=C(CC1CN(Cc2ccccc2)CCO1)Nc1ccccc1F (stereo not given),4.434 and 4.445,12.6 µM and 13.6 µM,
CCOCCCn1c(NC(=O)c2scnc2C)nc2ccccc21,,,IC50 [2]: > 29.5 µM; pIC50 [3]: 4.523 and 4.463
CCc1nc(CN2CCCN(C(=O)CCc3ccco3)CC2)cs1,< 4,> 100 µM,
CCCC(NC(=O)c1cc(C)n(C2CC2)c1C)c1nnn[nH]1 (stereo not given),< 4,55.7 µM and 67.9 µM,
CN(C)c1cc(CNC(=O)Nc2ccc(F)cc2)ccn1,4.234 and 4.227,14.4 µM and 16.9 µM,
COc1c(CNC2CCSc3ccc(F)cc32)c(C)nn1C.Cl (stereo not given),,,IC50 (Wolbachia pipientis): > 10 µM; pIC50 [3]: 4.845 and 5.142
Cl.c1ccc(-c2ccc(C3CNCCO3)nc2)cc1 (stereo not given),4.18 and 4.164,13.7 µM and 13 µM,
CCc1nnc2n1CCN(Cc1csc(-c3ccc(C)o3)n1)C2,< 4,> 100 µM,
CC(C)c1n[nH]c(C(=O)Nc2ccncc2)c1Br,,,IC50 (Leishmania donovani): > 50.1 µM; pIC50 [3]: 4.519 and 4.533
Cc1ccc(C(=O)Nc2cn[nH]c2)cc1C,4.136 and 4.208,13.3 µM and 12.6 µM,
Cc1nc(CN2CCCC(N(C)Cc3cscn3)C2)no1 (stereo not given),< 4,34.8 µM and 26.4 µM,
CC(C)c1cc2c(O)nc(CSCC(=O)O)nc2s1,4.494 and 4.54,7.28 µM and 8.24 µM,

SMILES,pIC50 [1],IC50 (Proteasome subunit beta),further results
CNC(=O)c1cnc(/C=C/c2ccc(OC)c(O)c2)s1,4.132 and < 4,17.4 µM and 13.8 µM,
Cc1cc(C(=O)N2CCC3(CCCN(CC4CC4)C3=O)C2)c(C)n1C (stereo not given),< 4,> 100 µM and 85.7 µM,
COc1cccc(C(=O)NCC(O)c2cccs2)c1 (stereo not given),4.037 and < 4,16.9 µM and 18.4 µM,Percent Effect (Schistosoma mansoni): -12.61%
c1ccc2sc(N3CCOC(Cn4cccn4)C3)nc2c1 (stereo not given),4.135 and 4.203,18 µM and 17.7 µM,
COc1cccc(-c2noc(C3CCN(Cc4cccs4)C3)n2)c1.Cl (stereo not given),4.852 and 4.875,13.9 µM and 12.6 µM,
CCOc1ccc(S(=O)(=O)NCc2cccnc2N(C)C)cc1,,,IC50 (Leishmania donovani): > 50.1 µM; IC50 (Lysine--tRNA ligase): > 50.1 µM; pIC50 [3]: 5.549 and 5.242
CNS(=O)(=O)Cc1ccc(CNc2cncc(-n3cccn3)n2)cc1,4.398 and 4.427,10.5 µM and 10.6 µM,IC50 (ClpP1P2): > 100 µM
CCOc1cc(/C=C/c2ncc(C(=O)O)s2)ccc1O,4.099 and 4.094,15.5 µM and 21.9 µM,
Cc1cnn(CC2CN(c3cnc4ccccc4n3)CCO2)c1 (stereo not given),4.14 and 4.151,17.8 µM and 19.4 µM,IC50 [4]: 16.4 µM; IC50 [5]: 14.4 µM
CO[C@@H]1CN(Cc2scnc2C)[C@@H]2CCCO[C@@H]21.O=C(O)C(F)(F)F.O=C(O)C(F)(F)F,< 4,8.6 µM and 10.8 µM,IC50 (ClpP1P2): > 100 µM
O=C(Nc1ccc(F)c(Br)c1)N1CCCC1,< 4,11.4 µM and 11.2 µM,
COCCN1CCc2cc(C(=O)NCC3CC3)c(NC(C)C)nc2CC1.O=C(O)C(F)(F)F.O=C(O)C(F)(F)F,,,IC50 (ClpP1P2): > 100 µM; pIC50 [3]: 5.014 and 5.099; IC50 [6]: 18.4 µM and 14.5 µM
Cc1ccc(NCc2cncc3c2CCN(C(=O)C2CC=CC2)C3)nn1.Cl,< 4,> 100 µM,
Cc1cc(C(=O)N2CCc3nnc(N)cc3C2)c(C)n1-c1cccnc1,< 4,> 100 µM,
CC(C)=CCN1C[C@H]2CC[C@@H]1CN(C(=O)c1c[nH]c(=O)c(Cl)c1)C2,< 4,> 100 µM,

# — ChEMBL document CHEMBL3988442, “University of Dundee, Small-Polar-MMV Screening Library” (2021)
